These results are taken from article PMC6412877 (Molecules, 2019).

Numbered stars: 1 amine (or outer) side, 2 acyl side, 3 side chain; on linkers, the order of the positions; unused ones are H or OH. Side chains are listed from the residue outwards. Ends that are not written are not given here. Peptide text beside a SMILES is read from it. * marks the point of attachment. C18 diacid = O=C(O)CCCCCCCCCCCCCCCCC(=O)*; γGlu = O=C(O)[C@H](CCC(=O)[*:2])N[*:1]; AEEA = NCCOCCOCC(=O)O Bounds are passed on as bounds.

In general, Kd refers to the concentration at which binding is half-saturated. Usually EC50 stands for the midpoint of the concentration-response curve. Read a high EC50 as a need for much substance. By Emax is commonly meant the maximal effect, on the per cent scale that the assay sets.

For assay [1], the target named is GLP-1R ECD (Homo sapiens, UniProt P43220). Kind of assay: SPR binding affinity for GLP-1R extracellular domain (Biacore 8K). Conditions: Table 1, peptides 01-12. The procedure: Surface Plasmon Resonance (SPR) measurements were performed with Biacore 8K (GE Health, Boston, MA, USA) for evaluating the associating affinity peptides for GLP1R ECD. Experimental details were carried out according to the Biacore 8K user’s manual.
Chain of GLP-1R ECD (P43220 24-139 limits assumed): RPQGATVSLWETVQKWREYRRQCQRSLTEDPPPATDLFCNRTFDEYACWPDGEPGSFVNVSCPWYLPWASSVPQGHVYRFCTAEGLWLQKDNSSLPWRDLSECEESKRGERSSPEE
Background: Surface plasmon resonance follows binding to a sensor surface in real time, without labels.

Assay [2] addresses Human GLP-1R (Homo sapiens, UniProt P43220). Kind of assay: In vitro GLP-1R activation, human receptor. The format is cell-based. Conditions: mean ± SD.
In assay [3] the target is T1, Mouse GLP-1R (Mus musculus, UniProt O35659).
T1 sequence (O35659 22-463): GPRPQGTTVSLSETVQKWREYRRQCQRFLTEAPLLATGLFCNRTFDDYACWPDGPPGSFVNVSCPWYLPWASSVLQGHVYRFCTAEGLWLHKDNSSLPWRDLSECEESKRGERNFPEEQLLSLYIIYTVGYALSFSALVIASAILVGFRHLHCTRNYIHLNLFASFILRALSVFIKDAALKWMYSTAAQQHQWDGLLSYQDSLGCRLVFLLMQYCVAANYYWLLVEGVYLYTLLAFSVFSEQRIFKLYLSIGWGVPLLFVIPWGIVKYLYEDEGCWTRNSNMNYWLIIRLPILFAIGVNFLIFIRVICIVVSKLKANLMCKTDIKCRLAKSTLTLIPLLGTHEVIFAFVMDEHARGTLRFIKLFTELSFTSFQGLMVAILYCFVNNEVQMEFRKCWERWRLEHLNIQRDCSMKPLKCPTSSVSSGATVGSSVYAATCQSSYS
As to the kind of experiment: In vitro GLP-1R activation, mouse receptor. The class given is cell-based. Conditions: mean ± SD.

In assay [4] the test system is diet-induced obesity (DIO) mice. Kind of assay: Oral glucose tolerance test (glucoregulatory and insulin secretion assay) in DIO mice. The class given is in vivo. Conditions: male DIO mice, n = 6. The method, then:
Half hour after single dose injection of different samples, the mice were administrated with glucose (2.0 g/kg), and then the blood glucose and insulin levels were detected before and at 15, 30, 45, 60 and 120 min by the ELISA kit (Merck).

Assay [5] concerns DIO mice. As to the kind of experiment: Hypoglycemic duration test in non-fasted DIO mice. The format is in vivo. Conditions: male DIO mice, not fasted, 25 nmol/kg single s.c., n = 6. The procedure:
The antihyperglycemic efficacy of PEP20 was investigated in male DIO mice. The BGLs of PEP20 group decreased rapidly to the normoglycemic state (<15 mmol/L) in 1 h after the administration of 25 nmol/kg. […] BGLs were detected using a one-touch blood glucose meter. Glucose-lowering duration under 8.35 mmol/L BGL was also checked

Assay [6] has as its system DIO mice. As to the kind of experiment: Chronic in vivo study, 4 weeks, DIO mice. Conditions: 25 nmol/kg s.c. once daily for 4 weeks. The method, then: To further examine the therapeutic potential of PEP20, chronic in vivo studies were performed by a daily subcutaneous (s.c.) injection of PEP20 (25 nmol/kg) in DIO mice for 4 weeks. […] Body weight, food intake, and water consumption were measured daily. DIO mice were subjected to OGTT at week 0 and at week 4 to evaluate the advance of diabetic statuses. HbA1c were measured after the treatment using an AU680 automatic biochemical analyzer (Beckman Coulter, Fullerton, […]).

Chain of Human GLP-1R (P43220 24-463): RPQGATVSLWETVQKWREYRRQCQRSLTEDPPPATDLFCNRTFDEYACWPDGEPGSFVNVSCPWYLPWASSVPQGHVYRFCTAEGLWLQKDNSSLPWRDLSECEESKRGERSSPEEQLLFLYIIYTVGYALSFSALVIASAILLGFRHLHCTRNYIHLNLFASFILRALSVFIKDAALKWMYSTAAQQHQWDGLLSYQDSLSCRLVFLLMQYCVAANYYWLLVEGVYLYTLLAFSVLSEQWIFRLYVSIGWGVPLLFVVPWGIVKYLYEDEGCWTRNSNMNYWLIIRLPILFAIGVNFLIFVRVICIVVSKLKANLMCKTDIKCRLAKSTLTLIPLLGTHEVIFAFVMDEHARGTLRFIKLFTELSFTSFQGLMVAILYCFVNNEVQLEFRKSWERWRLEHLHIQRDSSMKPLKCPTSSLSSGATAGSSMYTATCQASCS

In assay [1], `CC(C)C[C@H](NC(=O)[C@H](Cc1ccc(O)cc1)NC(=O)[C@H](C)NC(=O)[C@H](CO)NC(=O)[C@@H]1CCCN1C(=O)[C@H](CO)NC(=O)[C@H](CO)NC(=O)[C@H](Cc1ccc(O)cc1)NC(=O)[C@H](Cc1ccccc1)NC(=O)[C@@H](N)Cc1ccccc1)C(=O)N[C@@H](CCC(=O)O)C(=O)N[C@H](C(=O)O)[C@@H](C)O` [PEP01] had a Kd of 0.74 µM.

With `CC(C)C[C@H](NC(=O)[C@H](Cc1ccc(O)cc1)NC(=O)[C@H](CO)NC(=O)[C@H](CO)NC(=O)[C@@H](NC(=O)CNC(=O)[C@H](CCC(=O)O)NC(=O)[C@H](CO)NC(=O)[C@@H](NC(=O)[C@@H](N)Cc1ccccc1)[C@@H](C)O)[C@@H](C)O)C(=O)N[C@@H](CCC(=O)O)C(=O)N[C@H](C(=O)O)[C@@H](C)O` [PEP04], in assay [1], binding was characterised by a dissociation constant (Kd) of 3.99 µM.

Compound `CC[C@H](C)[C@H](NC(=O)[C@H](Cc1ccccc1)NC(=O)[C@@H](N)CCC(=O)O)C(=O)N[C@@H](C)C(=O)N[C@H](C(=O)N[C@@H](C)C(=O)N[C@@H](Cc1c[nH]c2ccccc12)C(=O)N[C@@H](CC(C)C)C(=O)N[C@H](C(=O)N[C@@H](CCCCN)C(=O)N[C@@H](CCC(N)=O)C(=O)N[C@H](C(=O)O)[C@@H](C)O)C(C)C)[C@@H](C)O` [PEP06] registered a Kd in assay [1] of 2.59 µM.

Consider `CC(C)C[C@H](NC(=O)[C@H](CCCCN)NC(=O)[C@H](C)NC(=O)[C@H](CO)NC(=O)[C@@H]1CCCN1C(=O)[C@H](CO)NC(=O)[C@H](CO)NC(=O)[C@H](Cc1ccc(O)cc1)NC(=O)[C@H](Cc1ccccc1)NC(=O)[C@@H](N)Cc1ccccc1)C(=O)N[C@@H](CCC(=O)O)C(=O)N[C@H](C(=O)NCC(=O)NCC(=O)N1CCC[C@H]1C(=O)N[C@@H](CO)C(=O)N[C@@H](CO)C(=O)NCC(=O)N[C@@H](C)C(=O)N1CCC[C@H]1C(=O)N1CCC[C@H]1C(=O)N1CCC[C@H]1C(=O)N[C@@H](CO)C(N)=O)[C@@H](C)O` [PEP13], for which, in assay [2], the EC50 came out at 64 ± 22 pM and the Emax was found to be 96 ± 4.1%. In assay [3], the midpoint of the response, the EC50, lay at 51 ± 9 pM and the Emax is 110 ± 9.4%.

Turning to `C[C@H](NC(=O)[C@H](CO)NC(=O)[C@@H]1CCCN1C(=O)[C@H](CO)NC(=O)[C@H](CO)NC(=O)[C@H](Cc1ccc(O)cc1)NC(=O)[C@H](Cc1ccccc1)NC(=O)[C@@H](N)Cc1ccccc1)C(=O)N[C@@H](Cc1ccc(O)cc1)C(=O)N[C@@H](CCCCN)C(=O)N[C@@H](CCC(=O)O)C(=O)N[C@H](C(=O)NCC(=O)NCC(=O)N1CCC[C@H]1C(=O)N[C@@H](CO)C(=O)N[C@@H](CO)C(=O)NCC(=O)N[C@@H](C)C(=O)N1CCC[C@H]1C(=O)N1CCC[C@H]1C(=O)N1CCC[C@H]1C(=O)N[C@@H](CO)C(N)=O)[C@@H](C)O` [PEP14], the Emax in assay [2] turned out to be 105 ± 9.2%; in assay [3] it was 150 ± 10.9%.

With `CC(C)C[C@H](NC(=O)[C@H](CCCCNC(=O)COCCOCCNC(=O)COCCOCCNC(=O)CC[C@H](NC(=O)CCCCCCCCCCCCCCCCC(=O)O)C(=O)O)NC(=O)[C@H](C)NC(=O)[C@H](CO)NC(=O)[C@@H]1CCCN1C(=O)[C@H](CO)NC(=O)[C@H](CO)NC(=O)[C@H](Cc1ccc(O)cc1)NC(=O)[C@H](Cc1ccccc1)NC(=O)[C@@H](N)Cc1ccccc1)C(=O)N[C@@H](CCC(=O)O)C(=O)N[C@H](C(=O)NCC(=O)NCC(=O)N1CCC[C@H]1C(=O)N[C@@H](CO)C(=O)N[C@@H](CO)C(=O)NCC(=O)N[C@@H](C)C(=O)N1CCC[C@H]1C(=O)N1CCC[C@H]1C(=O)N1CCC[C@H]1C(=O)N[C@@H](CO)C(=O)O)[C@@H](C)O` [PEP17] (H-FFYSSPSAK([AEEA-AEEA-γGlu-C18 diacid])LETGGPSSGAPPPS-OH; N-terminus and C-terminus assumed), the Emax came to 79 ± 6.4% in assay [2] and 68 ± 5.9% in assay [3].

Take `C[C@H](NC(=O)[C@H](CO)NC(=O)[C@@H]1CCCN1C(=O)[C@H](CO)NC(=O)[C@H](CO)NC(=O)[C@H](Cc1ccc(O)cc1)NC(=O)[C@H](Cc1ccccc1)NC(=O)[C@@H](N)Cc1ccccc1)C(=O)N[C@@H](Cc1ccc(O)cc1)C(=O)N[C@@H](CCCCNC(=O)COCCOCCNC(=O)COCCOCCNC(=O)CC[C@H](NC(=O)CCCCCCCCCCCCCCCCC(=O)O)C(=O)O)C(=O)N[C@@H](CCC(=O)O)C(=O)N[C@H](C(=O)NCC(=O)NCC(=O)N1CCC[C@H]1C(=O)N[C@@H](CO)C(=O)N[C@@H](CO)C(=O)NCC(=O)N[C@@H](C)C(=O)N1CCC[C@H]1C(=O)N1CCC[C@H]1C(=O)N1CCC[C@H]1C(=O)N[C@@H](CO)C(=O)O)[C@@H](C)O` [PEP18]: the results for the Emax in assay [2] and in assay [3] were 78 ± 6.4% and 78 ± 3.5%, respectively.

Consider `CC(C)C[C@H](NC(=O)[C@H](Cc1ccc(O)cc1)NC(=O)[C@H](C)NC(=O)[C@H](CO)NC(=O)[C@@H]1CCCN1C(=O)[C@H](CO)NC(=O)[C@H](CO)NC(=O)[C@H](Cc1ccc(O)cc1)NC(=O)[C@H](Cc1ccccc1)NC(=O)[C@@H](N)Cc1ccccc1)C(=O)N[C@@H](CCCCNC(=O)COCCOCCNC(=O)COCCOCCNC(=O)CC[C@H](NC(=O)CCCCCCCCCCCCCCCCC(=O)O)C(=O)O)C(=O)N[C@H](C(=O)NCC(=O)NCC(=O)N1CCC[C@H]1C(=O)N[C@@H](CO)C(=O)N[C@@H](CO)C(=O)NCC(=O)N[C@@H](C)C(=O)N1CCC[C@H]1C(=O)N1CCC[C@H]1C(=O)N1CCC[C@H]1C(=O)N[C@@H](CO)C(=O)O)[C@@H](C)O` [PEP19] (H-FFYSSPSAYLK([AEEA-AEEA-γGlu-C18 diacid])TGGPSSGAPPPS-OH; N-terminus and C-terminus assumed), for which the figures for the Emax in assay [2] and in assay [3] were 89 ± 6.2% and 83 ± 3.2%, respectively.

For the compound `CC(C)C[C@H](NC(=O)[C@H](Cc1ccc(O)cc1)NC(=O)[C@H](C)NC(=O)[C@H](CO)NC(=O)[C@@H]1CCCN1C(=O)[C@H](CO)NC(=O)[C@H](CO)NC(=O)[C@H](Cc1ccc(O)cc1)NC(=O)[C@H](Cc1ccccc1)NC(=O)[C@@H](N)Cc1ccccc1)C(=O)N[C@@H](CCC(=O)O)C(=O)N[C@@H](CCCCNC(=O)COCCOCCNC(=O)COCCOCCNC(=O)CC[C@H](NC(=O)CCCCCCCCCCCCCCCCC(=O)O)C(=O)O)C(=O)NCC(=O)NCC(=O)N1CCC[C@H]1C(=O)N[C@@H](CO)C(=O)N[C@@H](CO)C(=O)NCC(=O)N[C@@H](C)C(=O)N1CCC[C@H]1C(=O)N1CCC[C@H]1C(=O)N1CCC[C@H]1C(=O)N[C@@H](CO)C(=O)O` [PEP20] (H-FFYSSPSAYLEK([AEEA-AEEA-γGlu-C18 diacid])GGPSSGAPPPS-OH; N-terminus and C-terminus assumed), the Emax in assay [2] was 98 ± 8.1%. The Emax in assay [3] amounted to 99 ± 7.2%. The “plasma insulin concentrations from 15 to 60 min versus control” value in assay [4] (OGTT, 25 nmol/kg s.c., ELISA) is recorded as “significantly greater than those of the control group”. Moreover, the “glucose-lowering percentage compared with vehicle control group” value in assay [4] (OGTT, 25 nmol/kg single s.c., glucose 2.0 g/kg) worked out at 60.2%. Also, in assay [4] (25 nmol/kg single s.c., oral glucose 2.0 g/kg, vehicle 23.6 ± 3.1), the “blood glucose level (BGL) half an hour after glucose challenge” value is recorded as 10.1 mmol/L. In addition, in assay [5] (followed for 96 h), the “duration of glucose-lowering effect” value is recorded as “at least 96 h”. In assay [5], the “lowering of glucose level for 0–96 h (AUC0–96 h) compared with vehicle group” value came to 63.8% and the “time to normoglycemic state (<15 mmol/L) after administration” value is given as at most 1 h. In assay [6] (n = 6), the body weight gain result is “effectively suppressed”, the “decrease of OGTT AUC at 4 weeks compared with week 0” value came out at 22.1% and the food intake result is listed as “effectively suppressed”. For the same compound, the “HbA1c versus control group” value in assay [6] (p < 0.001, n = 6) is on record as “reduction”.

For FFYSSPSAYLEKGGPSSGAPPPS [PEP16], the Emax is 92 ± 7.1% in assay [2] and 93 ± 9.3% in assay [3].

FFYSSPSAYLKTGGPSSGAPPPS [PEP15]: the Emax was determined as 78 ± 9.1% in assay [2] and 73 ± 6.4% in assay [3].

In assay [1], KQYSSPTAWLVG [PEP03] had a Kd of 1.75 µM.
